Experimental data from paper PMC9496228, “Plasma Clearance of Intravenously Infused Adrenomedullin in Rats with Acute Renal Failure” (Biomolecules, 2022).
Like-named read-outs stand apart in the source and are kept apart here.

Legend:
[1] = Human adrenomedullin 60-min continuous intravenous infusion study in rats, plasma pharmacokinetics; format: in vivo, rat; settings: mean ± SD; for level at time molar at 1 h / half-life / clearance: male, Lewis, rat, in vivo; for level at time molar at 1 h: 0.1 ug/kg/min, hAM iv infusion 0.1 µg/kg/min, read-out: Plasma AM concentration at 60 min after initiating treatment (AM C60); for half-life: read-out: T1/2β, half-life in the terminal phase after stopping infusion; for clearance: hAM iv infusion 0.1 µg/kg/min for 60 min, dose divided by AUC0–60, read-out: CLtotal, total systemic clearance
Experimental: Renal dysfunction was induced by subcutaneous injection of 3 mg/kg mercury chloride (1 mg/mL saline) to rats (RD-Ag, n = 7) on the day before the adrenomedullin pharmacokinetic study. Control rats were treated with saline (normal renal function, NF, n = 5). Twenty-four hours after injection of mercury chloride (4 h before hAM administration), blood was collected from the tail vein of rats and serum creatinine (sCr) was measured using DRI-CHEM (FUJIFILM, Tokyo, Japan) to confirm the severity of renal damage. After the hAM administration study, the lungs and kidneys were removed from each group of rats, immersed in RNAlater (Thermo Fisher Scientific, Waltham, MA, USA), and frozen at −30 °C for later analysis.
Rats were subjected to cannulation at the beginning as described below. After laparotomy through a midline abdominal incision, the bilateral renal artery and vein of the rat were exposed and blocked with vascular clips to develop another model of renal dysfunction (RD-Bl, n = 3). Immediately after the vascular blockade, the rats were studied for hAM infusion experiment.
Rats under isoflurane anesthesia were placed on a heated surgical table in the supine position and subjected to cannulation (PE 50, Becton, Dickinson and Company, Franklin Lakes, NJ, USA) of the carotid artery and jugular vein. Human AM was dissolved in 20% mannitol to a concentration of 300 ng/mL and continuously administered at 0.1 µg/kg/min for 60 min via venous cannula using an infusion pump (KDS-100, KD Scientific, Holliston, MA, USA). After hAM administration had begun, 0.6 mL of whole blood was drawn from the arterial cannula at 0, 5, 10, 20, 30, 45, 60, 61.5, 63, 65, 70, 75, 80, and 90 min.
(§1) To measure plasma hAM concentrations, whole blood was collected with 2 mg/mL EDTA-2Na and 500 Kallikrein Inhibitory Units (KIU)/mL of aprotinin. Plasma was obtained by centrifugation at 10,000× g for 2 min at 4 °C and stored at −30 °C until the assays were performed. Plasma hAM concentration was measured using an automated immunoassay system (AIA-System, Tosoh Corporation, Tokyo, Japan) that was described previously, including intra- and inter-assay variations. This system is a one-step fluorescence sandwich immunoassay for the detection of human AM using two monoclonal antibodies against human AM(12–25) and AM(46–52).
Pharmacokinetic parameters in rats were calculated from individual plasma AM concentration vs time curves during and after 1 h intravenous infusion of hAM based on standard procedures. The area under the plasma concentration vs time curve (AUC0–60) was calculated during the first 60 min using a linear trapezoidal method, and the total systemic clearance (CLtotal) was calculated as the dose administered divided by AUC0–60. A plot of plasma concentration vs time after stopping hAM infusion yielded a biexponential curve. The elimination rate constant and half-life (T1/2β) in the terminal phase were calculated from individual plasma AM concentration vs time curves with a two-compartment model using the Solver tool in Microsoft Excel to minimize the sum of the squared residual values. Weighting was set to the standard deviation of plasma concentrations measured at each blood sampling point.

[2] = Human adrenomedullin intraperitoneal administration study in E-RAMP2 KO and control mice, plasma concentration; settings: mouse, in vivo, ip, 50 ug/kg, mean ± SD, read-out: Plasma AM concentration; for level at time molar at 10 min: 10 min after 50 μg/kg hAM intraperitoneally; for level at time molar at 0.5 h: 30 min after 50 μg/kg hAM intraperitoneally
Experimental: E-RAMP2 KO mice (aged 9–10 weeks) were generated by intraperitoneal administration of 75 mg/kg tamoxifen suspended in corn oil (20 mg/mL) once daily for five consecutive days. Mice of the same strain treated only with corn oil were used as a control group. Three to four mice were prepared for each blood collection point.
as §1

[3] = molecular target: AM receptor (CLR and RAMP2 or -3 heterodimeric receptors); settings: read-out: equilibrium dissociation constant for its receptor (Kd); cited from earlier work
Source text: Therefore, the administered AM appears to bind almost exclusively to its receptor and undergo receptor-mediated clearance. The AM receptor is made up of CLR and RAMP2 or -3 heterodimeric receptors. RAMP2 or -3 is a molecular chaperone required for CLR transport to the cell surface as well as for specifying the affinity of CLR for AM [35]. The distribution of ^125I-labeled AM in ...

[4] = RD-Bl rats (bilateral renal blood flow blockage, n = 3)

CC[C@H](C)[C@H](NC(=O)[C@H](CCC(N)=O)NC(=O)[C@H](Cc1c[nH]cn1)NC(=O)[C@H](C)NC(=O)[C@H](CC(C)C)NC(=O)[C@H](CCCCN)NC(=O)[C@H](CCC(N)=O)NC(=O)[C@@H](NC(=O)[C@@H](NC(=O)[C@@H]1CSSC[C@H](NC(=O)CNC(=O)[C@H](Cc2ccccc2)NC(=O)[C@H](CO)NC(=O)[C@H](CCCNC(=N)N)NC(=O)[C@H](CC(C)C)NC(=O)CNC(=O)[C@H](CCC(N)=O)NC(=O)[C@H](Cc2ccccc2)NC(=O)[C@H](CC(N)=O)NC(=O)[C@H](CC(N)=O)NC(=O)[C@H](CCSC)NC(=O)[C@H](CO)NC(=O)[C@H](CCC(N)=O)NC(=O)[C@H](CCCNC(=N)N)NC(=O)[C@@H](N)Cc2ccc(O)cc2)C(=O)N[C@@H](CCCNC(=N)N)C(=O)N[C@@H](Cc2ccccc2)C(=O)NCC(=O)N[C@@H]([C@@H](C)O)C(=O)N1)[C@@H](C)O)C(C)C)C(=O)N[C@@H](Cc1ccc(O)cc1)C(=O)N[C@@H](CCC(N)=O)C(=O)N[C@@H](Cc1ccccc1)C(=O)N[C@H](C(=O)N[C@@H](CC(=O)O)C(=O)N[C@@H](CCCCN)C(=O)N[C@@H](CC(=O)O)C(=O)N[C@@H](CCCCN)C(=O)N[C@@H](CC(=O)O)C(=O)N[C@@H](CC(N)=O)C(=O)N[C@H](C(=O)N[C@@H](C)C(=O)N1CCC[C@H]1C(=O)N[C@@H](CCCNC(=N)N)C(=O)N[C@@H](CO)C(=O)N[C@@H](CCCCN)C(=O)N[C@H](C(=O)N[C@@H](CO)C(=O)N1CCC[C@H]1C(=O)N[C@@H](CCC(N)=O)C(=O)NCC(=O)N[C@@H](Cc1ccc(O)cc1)C(N)=O)[C@@H](C)CC)C(C)C)[C@@H](C)O [AM, Human adrenomedullin]
T1/2β, half-life in the terminal phase after stopping infusion ([1]; RD-Ag rats (mercury chloride, n = 7), after 60-min iv infusion of hAM 0.1 µg/kg/min, two-compartment model): 22.2 ± 9.8 min | level at time molar at 1 h [1, 4]: 0.0781 ± 0.0105 nM | half-life ([1]; iv, 0.1 µg/kg/min, NF rats (n = 5), after 60-min iv infusion of hAM 0.1 µg/kg/min, two-compartment model): 15 ± 1.4 min | clearance ([1]; iv, 0.1 µg/kg/min, NF rats (n = 5)): 752 ± 230 mL/min/kg | level at time molar at 1 h ([1]; iv, NF rats (n = 5)): 0.049 ± 0.0136 nM | clearance ([1]; iv, 0.1 µg/kg/min, RD-Ag rats (mercury chloride, n = 7)): 192 ± 102 mL/min/kg | level at time molar at 1 h ([1]; iv, RD-Ag rats (mercury chloride, n = 7)): 0.162 ± 0.0887 nM | half-life ([1]; RD-Bl rats (bilateral renal blood flow blockage, n = 3), after 60-min iv infusion of hAM 0.1 µg/kg/min, two-compartment model): 16.7 ± 1.8 min | clearance [1, 4]: 450 ± 68.9 mL/min/kg | level at time molar at 10 min ([2]; E-RAMP2 KO mice (n = 3–4)): 3.98 ± 0.381 nM | level at time molar at 0.5 h ([2]; E-RAMP2 KO mice (n = 3–4)): 0.759 ± 0.234 nM | level at time molar at 10 min ([2]; control mice (Cont, n = 3–4)): 1.07 ± 0.595 nM | level at time molar at 0.5 h ([2]; control mice (Cont, n = 3–4)): 0.118 ± 0.0737 nM | Kd [3]: 0.3 to 0.6 nM
